Experimental data published in PubChem BioAssay AID179 (DTP/NCI, 2004).
Values joined by “and” are separate entries in the source; they are usually repeats but may differ in a detail not shown here. Identical values can stand only once. Active and inactive are the calls of the source.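 The calls were made as follows: active = compounds giving half or more protection of infected cells from virus-caused growth loss, again on retest; inactive = the rest.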 *1 amine or outer side, *2 acyl side, *3 side chain or, on linkers, in order; H or OH if unused. Where a SMILES comes first, the peptide text is derived from it. [ ]: non-standard residue; d: D form. The star is where a group is joined. X3 = CC(=O)N(C)SCC(N[*:1])C(=O)[*:2]; Fmoc = O=C(OCC1c2ccccc2-c2ccccc21)*; For = O=C*

Test system: CEM cells HIV-1 protection, formazan growth assay
Experiment: NCI AIDS Antiviral Assay
Conditions: for IC50: measured here: growth of uninfected CEM cells
Procedure: The ability of compounds to protect human CEM cells from HIV-1 infection is measured as a screen for new compounds capable of inhibiting the HIV virus. Five concentrations of drug were tested on uninfected and infected cells and cell growth was measured using a soluble formazan assay. […] Compounds that provided at least 50% protection were retested. Compounds that provided at least 50% protection on retest were listed as moderately active. Compounds that reproducibly provided 100% protection were listed as confirmed active. […] Note that the inability to provide protection could be due to toxicity.

| SMILES | EC50 [µM] | IC50 | outcome |
| --- | --- | --- | --- |
| COc1ccc(/C=C/c2sc3ccccc3[n+]2CCCCI)cc1OC | > 200 | 7.59 µM | – |
| O=S(=O)(Nc1ccccc1)c1ccc(-c2c3nc(c(-c4ccc(S(=O)(=O)Nc5ccccc5)cc4)c4ccc([nH]4)c(-c4ccc(S(=O)(=O)Nc5ccccc5)cc4)c4nc(c(-c5ccc(S(=O)(=O)Nc6ccccc6)cc5)c5ccc2[nH]5)C=C4)C=C3)cc1 | > 100 | > 100 µM | – |
| CC(C)c1ccc2nc3ccc(C(=O)NCCN(C)C)cn3c(=O)c2c1 | > 200 | 12.6 µM | – |
| CCOP(=O)(OCC)C(Cc1ccc(OC)c(OC)c1)N=C(c1ccccc1)c1ccccc1 (centres undefined) | > 200 | 29.5 µM | – |
| CCOC(=O)C(NC(C)=O)[CH](c1ccc(OC)cc1)[Sn]([c]1ccccc1)([c]1ccccc1)[c]1ccccc1 (centres undefined) | > 200 | 1.07 µM | – |
| O=S(=O)(N/N=C/c1ccc(Cl)cc1Cl)c1ccccc1 | – | – | inactive |
| NC(=O)C(NC=O)c1ccccc1 (centres undefined) | > 200 | > 200 µM | – |
| CCc1ccccc1NC(=O)C1=C(C)NC(C)=C(C(=O)Nc2c(CC)cccc2CC)C1c1ccc2c(c1)OCO2 (centres undefined) | > 33.9 | > 33.9 µM | – |
| CN(C(=O)c1ccc(Cl)cc1)C(=S)N1CCN(c2ccccc2)CC1 | > 19.5 | > 19.5 µM | – |
| N=C(N)SCc1ccc2c(c1)Sc1ccccc1O2 | > 200 | 11.7 µM | – |
| COc1ccc(N=NC(=O)NC(Cc2ccccc2)C(=O)O)cc1 (centres undefined) | > 200 | 20 µM | – |
| O=C1c2c(nc3ccccc3c2-c2ccccc2)CN1Nc1ccccn1 | > 141 | > 141 µM | – |
| [N-]=[NH+]CC(=O)OC(COCc1ccccc1)COCc1ccccc1 | > 200 | 117 µM | – |
| O=C(C=Nc1ccccc1C(=O)[O-])c1ccco1.O=C(C=Nc1ccccc1C(=O)[O-])c1ccco1.[Ni+2] | > 1.91 | > 1.91 µM | – |
| CCCCCCCCCCCCP(=O)(O)OCC(N)C(=O)O (centres undefined) | > 200 | 83.2 µM | – |
| Cc1c(N=Nc2ccc(Br)cc2)c(=O)n(-c2ccccc2)c(=O)n1-c1nc2ccccc2[nH]1 | > 89.1 | 85.1 µM | – |
| CCSCCCCCCCCCCCC(=O)OCC1OC(n2cc(C)c(=O)[nH]c2=O)CC1F (centres undefined) | 0.0158 | 2 µM | – |
| CC(=O)N(C)SCC(NC(=O)C(Cc1ccccc1)NC(=O)OCC1c2ccccc2-c2ccccc21)C(=O)NC(Cc1ccccc1)C(=O)NC(Cc1cn(C=O)c2ccccc12)C(=O)NC(CCCCNC(=O)OCC1c2ccccc2-c2ccccc21)C(=O)NC(C(=O)NC(CSN(C)C(C)=O)C(=O)NC(C(N)=O)C(C)O)C(C)O (centres undefined) (Fmoc-F[X3]FW(For)K(Fmoc)T[X3]T-NH2; configuration not given here) | > 100 | 79.4 µM | – |
| CC(F)(C(N)=O)C(N)=O | > 200 | > 200 µM | – |
| O=C(O)c1cocc1C(=O)O | – | – | inactive |
| C=Cc1cc[n+](CC(=O)c2ccc(-c3ccccc3)cc2)cc1 | > 200 | 45.7 µM | – |
| CC1(c2cccc(N)c2)C2C(=O)NC(=O)C1C(=O)NC2=O (centres undefined) | > 331 | 56.2 µM | – |
| CCOc1ccc(/C=C2/C(=O)N=C(NC(C)=O)N2C)cc1 | > 200 | > 200 µM | – |
| Cn1ccnc1C(c1nccn1C)C(C)(C)[N+](=O)[O-] | > 339 | > 339 µM | – |
| COc1cc2c(cc1O)C1Cc3cc(O)c(OC)cc3C(C2)N1C (centres undefined) | > 759 | 49 µM | – |
| Cc1ccccc1NC(=O)CC(=O)n1nc(-c2ccccc2)c(N=Nc2ccc([N+](=O)[O-])cc2)c1-c1ccccc1 | > 25.1 | 16.2 µM | – |
| CCCCCCCC(=O)c1ccc(O)c(C(=O)Nc2ccc(C(F)(F)F)cc2)c1 | > 33.1 | 5.01 µM | – |

| SMILES | EC50 [µM] | IC50 | outcome |
| --- | --- | --- | --- |
| C[C@@H]1C(O)CC[C@H](C)C12CC=CC2=O (some centres undefined) | > 200 | > 200 µM | – |
| CN1C(=O)/C(=C2\SC(=O)N(Cc3nc4ccccc4[nH]3)C2=O)c2cc(Br)ccc21 | > 200 | 12.9 µM | – |
| C(CCCCc1nnc(N2CCCCC2)o1)CCCc1nnc(N2CCCCC2)o1 | > 200 | > 200 µM | – |
| CC(=O)/C(=C/c1ccc(C#N)cc1)C(=O)c1ccccc1 | > 95.5 | 16.6 µM | – |
| NC(=O)C(=CNC(=S)Nc1ccc(S(=O)(=O)Nc2ccccn2)cc1)C(N)=O | > 200 | > 200 µM | – |
| Cc1c(N=O)c(=O)n(-c2ccccc2)n1C | – | – | inactive |
| Cc1ccc(N=C2C(=Nc3ccc(C)cc3)N(c3ccc(C)cc3)C(=S)N2C(=O)c2ccccc2)cc1 | > 200 | > 200 µM | – |
| CC1OC(OCC2OC(Oc3c(-c4ccc(O)cc4)oc4cc(O)cc(O)c4c3=O)C(OC3OC(C)C(O)C(O)C3O)C(O)C2O)C(O)C(O)C1O (centres undefined) | > 339 | > 339 µM | – |
| NCCCNCCSSCc1ccccc1CSSCCNCCCN | – | – | inactive |
| Nc1nccc2c([N+](=O)[O-])cccc12 | – | – | inactive |
| COC(=O)c1c2c(cc3c1CC1(C3)Cc3cc4c(c(C(C)=O)c3C1)CCC4)C=CC2 (centres undefined) | > 200 | > 200 µM | – |
| Cc1cc(=O)oc2c3c(ccc12)OC(C)(C)[C@H](OC(=O)C12CCC(C)(C(=O)O1)C2(C)C)[C@@H]3OC(=O)C12CCC(C)(C(=O)O1)C2(C)C (some centres undefined) | 0.0759 | > 200 µM | – |
| CCOC(=O)CSC(=O)NCCCl | > 1100 | 537 µM | – |
| O=C(C(=Cc1ccccc1)C(=O)c1ccccc1)c1ccccc1 | > 43.7 | 14.5 µM | – |
| CN1CCC2(CC1)C(=O)N(NC(N)=O)C(=O)C2c1ccccc1 (centres undefined) | > 200 | > 200 µM | – |
| CN(C)CCCCN1c2ccccc2Sc2ccc(N=[N+]=[N-])cc21 | > 200 | 3.24 µM | – |
| O=C1c2ccccc2C(=O)N1/N=C\c1ccc(Br)cc1 | > 21.9 | > 21.9 µM | – |
| O=c1oc2ccccc2n1CCCn1c(=O)oc2ccccc21 | > 200 | > 200 µM | – |
| Cc1ccc(S/C=C/C(=O)Nc2ccccc2)cc1 | > 37.2 | > 37.2 µM and 25.1 µM | – |
| O=C1c2ccccc2-c2c1c1ccccc1c(=O)n2Cc1ccco1 | > 11.5 | > 11.5 µM | – |
| CC(=O)CC[N+](C)(C)C | – | – | inactive |
| CC(=O)O[C@H]1CCC(C)=CCC[C@@]2(C)C(CC[C@@H]2[C@@H](C)/C=C/C(C)C)c2ccc(cc2C(=O)O)C1 (some centres undefined) | – | – | inactive |
| COc1ccc(N=C2C(=Nc3ccc(OC)cc3)N(S(=O)(=O)c3ccccc3)C(=S)N2c2ccccc2)cc1 | > 200 | > 200 µM | – |
| S=c1[nH]nc(COc2ccc(Cl)cc2)n1-c1ccccc1 | > 200 | 30.9 µM | – |
| O=C(O)CC(Cc1ccc2c(c1)OCO2)C(=O)O (centres undefined) | > 200 | > 200 µM | – |
| O=c1n(-c2ccccc2)c(=O)n2n1C1CC3c4ccccc4C1C32 (centres undefined) | > 22.9 | > 22.9 µM | – |
| CC/C(Cl)=N\OC(=O)Nc1ccccc1OC(F)(F)F | > 20 | 3.16 µM | – |

| SMILES | EC50 [µM] | IC50 | outcome |
| --- | --- | --- | --- |
| O=C1N=C2SC=C(NC(=S)Nc3ccccc3)N2NC12c1ccccc1-c1ccccc12 | > 200 | 74.1 µM | – |
| N#CC(NNC(=O)Cc1ccccc1)c1c(O)ccc2ccccc12 (centres undefined) | > 56.2 | 3.89 µM | – |
| Cc1ccc(NC(=O)CC/C(CC(=O)C(C)(C)C)=N\Nc2ccc([N+](=O)[O-])cc2[N+](=O)[O-])cc1C | > 14.8 | > 14.8 µM | – |
| CC(CO)S(=O)(=O)O (centres undefined) | > 200 | > 200 µM | – |
| O=[N+]([O-])c1ccc2c(c1)/C(=N/N=C1c3ccccc3Cc3ccccc31)c1cc([N+](=O)[O-])cc([N+](=O)[O-])c1-2 | – | – | inactive |
| OC1c2ccccc2C2(O)C1C(c1ccccc1)C(c1ccccc1)C2(O)c1ccccc1 (centres undefined) | – | – | inactive |
| C1COC(NC(C2CC2)C2CC2)=N1 | – | – | inactive |
| CCOC(=O)C1(C(=O)OCC)CCCN1C(=O)[C@H](CNC(=O)OC(C)(C)C)NC(=O)OCc1ccccc1 | – | – | inactive |
| Cn1c(-c2ccc(/C=N/N=C/c3ccc(-c4c[n+]5ccccc5n4C)cc3)cc2)c[n+]2ccccc12 | > 200 | 170 µM | – |
| CC1CN1c1c(C(=O)/C=C/c2ccc(Cl)cc2)c(-c2ccccc2)nn(C)c1=O (centres undefined) | > 8.91 | > 8.91 µM | – |
| CC(C)(C)C(=O)/C=C/c1ccc([N+](=O)[O-])cc1 | – | 10.2 µM | inactive |
| O=[N+]([O-])c1ccc(Cl)cc1C1ON=C(c2ccccc2)N1C12CC3CC(CC(C3)C1)C2 (centres undefined) | > 100 | > 100 µM | – |
| O=C(O)CCN(CCCN(CCC(=O)O)CCC(=O)O)CCC(=O)O | > 575 | 8.13 µM | – |
| O=C(O)CCCCCCCCCCCO | > 200 | > 200 µM | – |
| [O-]c1c[n+](C23CCC(c4ccccc42)c2ccccc23)no1 | > 200 | 97.7 µM | – |
| CCOCCN(CCOCC)C(=O)c1ccc2c(c1)no[n+]2[O-] | > 200 | 135 µM | – |
| Cn1nc(-c2ccccc2)c(C(=O)/C=C/c2ccccc2)c(N2CCCCC2)c1=O | > 24 | > 24 µM | – |
| O=C1/C(=C/c2cccc(Cl)c2)Cc2ccccc21 | > 28.2 | > 28.2 µM | – |
| CC1CC(C)(C)N=C(CCCO)O1 (centres undefined) | > 200 | > 200 µM | – |
| COC(=O)c1cc(=O)[nH]c2c1c(=O)n(C)c(=O)n2C | > 200 | > 200 µM | – |
| CCS(=O)(=O)[C@@]1(C#N)CC[C@]1(C#N)S(=O)(=O)CC | 646 | 871 µM | – |
| CC1(C)NC(c2ccccc2)c2ccsc2-n2cccc21 (centres undefined) | > 200 | > 100 µM | – |
| O=C1CCC2(c3ccc(Cl)cc3)Nc3cc([N+](=O)[O-])ccc3N12 (centres undefined) | > 21.9 | > 21.9 µM | – |
| COc1ccc(/C=C2\N=C3N(Cc4ccccc4)C=C(N)N3C2=O)cc1 | > 200 | > 200 µM | – |
| Cc1cc(=O)n(/C=C/C(=O)O)c2ccccc12 | > 200 | > 200 µM | – |
| O=C(O)[C@H](CCC[C@H]1C(=O)O[C@H](c2ccccc2)[C@H](c2ccccc2)N1C(=O)OCc1ccccc1)N[C@@H](c1ccccc1)[C@H](O)c1ccccc1 | > 89.1 | 77.6 µM | – |
